Experiment [1] concerns the target human RORγt LBD (Homo sapiens (Human), UniProt P51449). The experiment can be described thus: RORγt reporter assay (GAL4-RORγt LBD luciferase in HEK293T cells). The note with it: for IC50: 24 hours compound treatment; for inhibition at 6 µM: HEK-293T, read-out: RORγt reporter Assay, % inhibition @ 6 μM, HEK293T cells, 6 μM. The class given is cell-based. An excerpt: A reporter assay was used to test functional activity of RORγt modulatory compounds on transcriptional activation driven by the RORγt LBD. Cells used in the assay were co-transfected with two constructs. The first construct, pBIND-RORγt LBD, contained the wild type human RORγt LBD fused to the DNA binding domain of the GAL4 protein. The second construct, pGL4.31 (Promega Cat no. C935A), contained multiple GAL4 responsive DNA elements upstream of firefly luciferase. […] The mutant construct was called pBIND-RORγt-AF2.
The pBIND vector contains the GAL4 DNA Binding Domain (GAL4 DBD) and the renilla luciferase gene under control of the SV40 promoter. Renilla luciferase expression serves as a control for transfection efficiency and cell viability.
The reporter assay was performed by transiently transfecting HEK293T cells with 5 ng of pBIND-RORγt LBD or pBIND-RORγt LBD-AF2 and 5 μg pGL4.31 (Promega Cat no. C935A) using Fugene 6 ([…] Cat no. E2691) at a 1:6 ratio of DNA: Fugene 6 in a T-75 flask in which cells were at least 80% confluent. Twenty four hours after bulk transfection, cells were plated into 96-well plates at 50,000 cells/well in phenol-red free DMEM containing 5% Lipid Reduced FCS and Pen/Strep. Six hours after plating, cells were treated with compounds for 24 hours. Media was removed and cells were lysed with 50 μL 1× Glo Lysis Buffer (Promega). Dual Glo Luciferase Reagent (50 μL/well) was then added and firefly luciferase luminescence was read on an Envision after a ten minute incubation. Finally, Stop and Glo reagent (50 μL/well) was added and renilla luciferase luminescence was read on an Envision after a ten minute incubation. To calculate the effect of compounds on RORγt activity, the ratio of firefly to renilla luciferase was determined and plotted against compound concentration. Agonist compounds increase RORγt-driven luciferase expression, and antagonist or inverse agonist compounds decrease luciferase expression.
On the technique in general: A reporter such as luciferase makes a cellular process visible.

In experiment [2] the target is human RORγt ligand binding domain (RORγt LBD) (Homo sapiens (Human), UniProt P51449). The experiment can be described thus: RORγt ThermoFluor assay (thermal shift binding affinity). The note with it: estimated from thermal shift. How it is done: This approach is applicable to a wide variety of systems, and rigorous in theoretical interpretation through quantitation of equilibrium binding constants (KD).
Chain of human RORγt ligand binding domain (RORγt LBD) (P51449 other isoform, or with tags, fused parts or gaps): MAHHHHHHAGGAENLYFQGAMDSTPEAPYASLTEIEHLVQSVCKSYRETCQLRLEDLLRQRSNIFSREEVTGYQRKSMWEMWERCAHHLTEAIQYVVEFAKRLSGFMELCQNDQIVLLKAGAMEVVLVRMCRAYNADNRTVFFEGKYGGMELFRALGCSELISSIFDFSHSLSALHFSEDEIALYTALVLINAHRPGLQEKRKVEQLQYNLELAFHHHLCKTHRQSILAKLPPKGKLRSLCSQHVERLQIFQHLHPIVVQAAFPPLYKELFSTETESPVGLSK
The shift in the melting point described as a ΔTm is proportional to the concentration and affinity of the ligand.
RORγt ThermoFluor® Assay Construct
Protein and compound solutions are dispensed into black 384-well polypropylene PCR microplates (Abgene) and overlayed with silicone oil (1 μL, Fluka, type DC 200) to prevent evaporation.
Bar-coded assay plates are robotically loaded onto a thermostatically controlled PCR-type thermal block and then heated at a typical ramp-rate of 1° C./min for all experiments. Fluorescence was measured by continuous illumination with UV light (Hamamatsu LC6) supplied via fiber optic and filtered through a band-pass filter (380-400 nm; >6 OD cutoff). Fluorescence emission of the entire 384-well plate was detected by measuring light intensity using a CCD camera (Sensys, Roper Scientific) filtered to detect 500±25 nm, resulting in simultaneous and independent readings of all 384 wells. Images were collected at each temperature, and the sum of the pixel intensity in a given area of the assay plate was recorded versus temperature. Reference wells contained RORγt without compounds, and the assay conditions were as follows: • 0.065 mg/mL RORγt • 60 μM 1,8-ANS • 100 mM Hepes, pH 7.0 • 10 mM NaCl • 2.5 mM GSH • 0.002% Tween-20
Project compounds were arranged in a pre-dosed mother plate (Greiner Bio-one) wherein compounds are serially diluted in 100% DMSO by 1:2 from a high concentration of 10 mM over 12 columns within a series (column 12 is a reference well containing DMSO, no compound). The compounds were robotically dispensed directly into assay plates (1×=46 nL) using a Hummingbird capillary liquid handling instrument (Digilab). Following compound dispense, protein and dye in buffer was added to achieve the final assay volume of 3 μL, followed by 1 μL of silicone oil.

Structures can show the parent of a compound that is named as a salt. A value given as a limit tells only on which side of the number the result lay.

Chain of human RORγt LBD (P51449 258-518): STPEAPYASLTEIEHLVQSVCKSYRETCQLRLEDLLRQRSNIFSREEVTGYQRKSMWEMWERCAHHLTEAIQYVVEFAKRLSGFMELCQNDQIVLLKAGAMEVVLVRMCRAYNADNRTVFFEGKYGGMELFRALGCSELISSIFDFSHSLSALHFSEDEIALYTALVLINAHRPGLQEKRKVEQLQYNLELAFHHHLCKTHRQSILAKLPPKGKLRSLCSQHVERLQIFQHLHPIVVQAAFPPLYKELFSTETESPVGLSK

In general, IC50 refers to the concentration at which inhibition is half-maximal. The inhibition is the relative decrease from the control value, in per cent. For `COc1nc2ccc(C(O)(c3ccc(C(F)(F)F)nc3)c3cncn3C)cc2c(Cl)c1Cc1ccc(S(C)(=O)=O)cc1` (stereo not drawn) [Example 53, (4-Chloro-2-methoxy-3-(4-(methylsulfonyl)benzyl)quinolin-6-yl)(1-methyl-1H-imidazol-5-yl)(6-(trifluoromethyl)pyridin-3-yl)methanol], half-maximal inhibition in experiment [1] (HEK293T cells) (IC50) required 0.046 µM. Besides, the inhibition at 6 µM in experiment [1] turned out to be 101%.
The Kd is the free concentration of one partner at which half of the binding sites on the other are occupied at equilibrium, for simple one-to-one binding. Take `COc1nc2ccc(C(O)(c3ccc(N(C)C)cc3)c3cncn3C)cc2c(Cl)c1Cc1ccc(-n2cccn2)cc1` (stereo not drawn) [Example 26, (3-(4-(1H-Pyrazol-1-yl)benzyl)-4-chloro-2-methoxyquinolin-6-yl)(4-(dimethylamino)phenyl)(1-methyl-1H-imidazol-5-yl)methanol.TFA]: the Kd in experiment [2] was 0.22 µM. In experiment [1] (HEK293T cells), this compound gave an IC50 of 0.48 µM. The inhibition at 6 µM in experiment [1] amounted to 85%.
For `COc1nc2ccc(C(O)(c3ccc(Cl)cc3)c3cncn3C)cc2c(Cl)c1Cc1ccc(-n2cncn2)cc1` (stereo not drawn) [Example 64A, (3-(4-(1H-1,2,4-Triazol-1-yl)benzyl)-4-chloro-2-methoxyquinolin-6-yl)(4-chlorophenyl)(1-methyl-1H-imidazol-5-yl)methanol], the inhibition at 6 µM in experiment [1] came out at 99%.
For the compound `Cn1cncc1C(O)(c1ccc(C(F)(F)F)nc1)c1ccc2nc(C#N)c(Cc3ccc(-n4cccn4)cc3)cc2c1` (single isomer, unassigned) [Example 70C, 3-(4-(1H-Pyrazol-1-yl)benzyl)-6-(hydroxy(1-methyl-1H-imidazol-5-yl)(6-(trifluoromethyl)pyridin-3-yl)methyl)quinoline-2-carbonitrile], in experiment [2], the Kd was 16 µM. Besides, the “RORγt reporter Assay, % inhibition @ 6 μM” value in experiment [1] (HEK293T cells, 6 μM) worked out at 85%. The compound further yielded an IC50 in experiment [1] (HEK293T cells) of 1.6 µM.
As for `COc1nc2ccc(C(N)(c3ccc(C)nc3C)c3cnnn3C)cc2c(Cl)c1Cc1ccc(C(F)(F)F)cc1` (single isomer, unassigned) [Example 87B, (4-Chloro-2-methoxy-3-(4-(trifluoromethyl)benzyl)quinolin-6-yl)(2,6-dimethylpyridin-3-yl)(1-methyl-1H-1,2,3-triazol-5-yl)methanamine], in experiment [2], the Kd was 2.3 µM. For the same compound, the IC50 in experiment [1] (HEK293T cells) amounted to 0.85 µM. Further, the inhibition at 6 µM in experiment [1] stood at 95%.
On the same counts, the results for `Cn1cncc1C(O)(c1ccc(Cl)cc1)c1ccc2nc(O)c(Cc3ccc(-n4cccn4)cc3)c(Cl)c2c1` (stereo not drawn) [Example 55A, 3-(4-(1H-Pyrazol-1-yl)benzyl)-4-chloro-6-((4-chlorophenyl)(hydroxy)(1-methyl-1H-imidazol-5-yl)methyl)quinolin-2-ol] are 7.6 µM, 1.7 µM and 94%.
On to `CCc1nc2ccc(C(O)(c3cnnn3C)C3CN(C(=O)OC(C)(C)C)C3)cc2c(Cl)c1Cc1ccc(C(F)(F)F)cc1` (stereo not drawn) [Example 89, tert-Butyl 3-((4-chloro-2-ethyl-3-(4-(trifluoromethyl)benzyl)quinolin-6-yl)(hydroxy)(1-methyl-1H-1,2,3-triazol-5-yl)methyl)azetidine-1-carboxylate], for which, in experiment [2], the Kd is 0.00077 µM. Besides, the IC50 in experiment [1] (HEK293T cells) stood at 0.021 µM. The inhibition at 6 µM in experiment [1] was 102%.
Regarding `COc1nc2ccc(C(O)(c3ccc(Cl)cc3)c3cncn3C)cc2c(Cl)c1Cc1ccc(-n2cncn2)cc1` (single isomer, unassigned) [Example 64B, (3-(4-(1H-1,2,4-triazol-1-yl)benzyl)-4-chloro-2-methoxyquinolin-6-yl)(4-chlorophenyl)(1-methyl-1H-imidazol-5-yl)methanol], the inhibition at 6 µM in experiment [1] came out at 101%.
On to `COc1ccc(C(O)(c2ccc3nc(Cl)c(Cc4ccc(-n5cccn5)cc4)c(Cl)c3c2)c2cncn2C)cn1` (stereo not drawn) [Example 21, (3-(4-(1H-Pyrazol-1-yl)benzyl)-2,4-dichloroquinolin-6-yl)(6-methoxypyridin-3-yl)(1-methyl-1H-imidazol-5-yl)methanol.TFA], for which, in experiment [1], the inhibition at 6 µM stood at 103%.
`COc1nc2ccc(C(O)(c3ccc(C)nc3C)c3cnnn3C)cc2c(Cl)c1Cc1ccc(C(F)(F)F)cc1` (stereo not drawn) [Example 77A, (4-Chloro-2-methoxy-3-(4-(trifluoromethyl)benzyl)quinolin-6-yl)(2,6-dimethylpyridin-3-yl)(1-methyl-1H-1,2,3-triazol-5-yl)methanol]: in experiment [1], the inhibition at 6 µM was 103%.
The compound `OC(c1cccnc1)(c1cccc(Cl)c1)c1ccc2nc(Cl)c(Cc3ccc(Cl)cc3)c(Cl)c2c1` (stereo not drawn) [Example 2, (3-Chlorophenyl)-(2,4-dichloro-3-(4-chlorobenzyl)quinolin-6-yl)-(pyridin-3-yl)methanol.TFA] yielded an IC50 in experiment [1] (HEK293T cells) of 0.05 µM. Besides, the inhibition at 6 µM in experiment [1] turned out to be 70%.
Consider `CCc1nc2ccc(C(O)(c3cnnn3C)C3CN(S(C)(=O)=O)C3)cc2c(Cl)c1Cc1ccc(C(F)(F)F)cc1` (stereo not drawn) [Example 91A, (4-Chloro-2-ethyl-3-(4-(trifluoromethyl)benzyl)quinolin-6-yl)(1-methyl-1H-1,2,3-triazol-5-yl)(1-(methylsulfonyl)azetidin-3-yl)methanol], for which the inhibition at 6 µM in experiment [1] is 100%.
In turn, `Cn1cncc1C(O)(c1ccc(Cl)cc1)c1ccc2nc(C#N)c(Cc3ccc(-n4cccn4)cc3)c(C#N)c2c1` (stereo not drawn) [Example 71A, 3-(4-(1H-Pyrazol-1-yl)benzyl)-6-((4-chlorophenyl)(hydroxy)(1-methyl-1H-imidazol-5-yl)methyl)quinoline-2,4-dicarbonitrile] came in with an IC50 in experiment [1] (HEK293T cells) of 0.11 µM. The inhibition at 6 µM in experiment [1] came to 97%.
As to `COc1nc2ccc(C(O)(c3cnnn3C)c3cnc(C)n3C)cc2c(Cl)c1Cc1ccc(C(F)(F)F)cc1` (stereo not drawn) [Example 80A, (4-Chloro-2-methoxy-3-(4-(trifluoromethyl)benzyl)quinolin-6-yl)(1,2-dimethyl-1H-imidazol-5-yl)(1-methyl-1H-1,2,3-triazol-5-yl)methanol], the inhibition at 6 µM in experiment [1] was determined as 103%.
`COc1nc2ccc(C(O)(c3ccc(C)nc3C)c3cnnn3C)cc2c(C#N)c1Cc1ccc(C(F)(F)F)cc1` (stereo not drawn) [Example 78A, 6-((2,6-Dimethylpyridin-3-yl)(hydroxy)(1-methyl-1H-1,2,3-triazol-5-yl)methyl)-2-methoxy-3-(4-(trifluoromethyl)benzyl)quinoline-4-carbonitrile]: the inhibition at 6 µM in experiment [1] was determined as 97%.
For `COc1ccc(Cc2cc3cc(C(O)(c4cncs4)c4cncn4C)ccc3nc2Cl)cc1` (stereo not drawn) [Example 52, (2-chloro-3-(4-methoxybenzyl)quinolin-6-yl)(1-methyl-1H-imidazol-5-yl)(thiazol-5-yl)methanol.TFA], the IC50 in experiment [1] (HEK293T cells) is > 6 µM. Further, the inhibition at 6 µM in experiment [1] worked out at 34%.
For the compound `COc1nc2ccc(C(O)(c3ccc(C)nc3C)c3cnnn3C)cc2c(C#N)c1Cc1ccc(C(F)(F)F)cc1` (single isomer, unassigned) [Example 78B, 6-((2,6-Dimethylpyridin-3-yl)(hydroxy)(1-methyl-1H-1,2,3-triazol-5-yl)methyl)-2-methoxy-3-(4-(trifluoromethyl)benzyl)quinoline-4-carbonitrile], in experiment [1], the inhibition at 6 µM worked out at 94%.
On to `OC(c1cccnc1)(c1cccc(Cl)c1)c1ccc2nc(Cl)c(Cc3ccc(F)cc3)c(Cl)c2c1` (stereo not drawn) [Example 3, (3-Chlorophenyl)-(2,4-dichloro-3-(4-fluorobenzyl)quinolin-6-yl)-(pyridin-3-yl)methanol.TFA], for which the IC50 in experiment [1] (HEK293T cells) was > 6 µM. The inhibition at 6 µM in experiment [1] was found to be 30%.

(Values after patent publication US9290476B2, “Methylene linked quinolinyl modulators of RORγt” (Janssen Pharmaceutica NV, priority 2012, dated 2016).)
